Read-outs that look alike come from different tables or passages of the source.
Experiments:
human CB2 receptors = target: T1, human CB2 receptors (Homo sapiens, UniProt P34972); assay: human CB2 radioligand binding assay ([3H]CP-55,940 competition)
T1 construct: expressed in transfected cells; host or cells: HEK293

rat CB2 [1] = target: T2, rat CB2 (Rattus norvegicus, UniProt Q9QZN9); assay: rat CB2 cyclase functional assay (HitHunter cAMP, HEK cells); type: cell-based; set-up: expressed in transfected cells; host or cells: HEK; conditions: forskolin 18 μM
T2 sequence (Q9QZN9 1-360): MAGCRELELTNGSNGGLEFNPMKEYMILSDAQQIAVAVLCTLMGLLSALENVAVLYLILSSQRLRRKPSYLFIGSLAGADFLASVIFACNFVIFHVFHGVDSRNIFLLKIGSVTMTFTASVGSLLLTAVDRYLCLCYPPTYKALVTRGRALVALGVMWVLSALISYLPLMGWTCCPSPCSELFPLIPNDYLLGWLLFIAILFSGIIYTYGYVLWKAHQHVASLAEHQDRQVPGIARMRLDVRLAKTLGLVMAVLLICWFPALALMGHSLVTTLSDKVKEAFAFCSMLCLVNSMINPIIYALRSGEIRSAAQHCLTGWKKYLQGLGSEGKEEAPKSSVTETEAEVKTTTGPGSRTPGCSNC

rat CB2 [2] = target: T2, rat CB2; assay: rat CB2 radioligand binding assay ([3H]CP-55,940 competition); set-up: expressed in transfected cells; host or cells: HEK293
[3] = HEK293 membranes, 0.5 nM [3H]CP-55,940, read-out: human CB2 (Ki)
[4] = HEK293 membranes, 0.5 nM [3H]CP-55,940, read-out: rat CB2 (Ki)

T1 sequence (P34972 whole entry): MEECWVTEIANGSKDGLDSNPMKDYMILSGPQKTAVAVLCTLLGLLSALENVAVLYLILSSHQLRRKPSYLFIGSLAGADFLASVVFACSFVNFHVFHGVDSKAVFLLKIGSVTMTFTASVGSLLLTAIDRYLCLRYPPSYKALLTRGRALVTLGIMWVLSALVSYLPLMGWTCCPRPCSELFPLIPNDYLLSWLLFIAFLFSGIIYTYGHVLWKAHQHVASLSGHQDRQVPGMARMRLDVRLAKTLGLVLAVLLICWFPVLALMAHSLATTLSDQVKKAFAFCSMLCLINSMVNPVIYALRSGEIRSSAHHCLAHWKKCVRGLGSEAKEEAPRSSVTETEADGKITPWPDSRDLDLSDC

Row | Structure (SMILES) | Ki (human CB2 receptors) | EC50 (rat CB2 [1]) | Ki (human CB2 receptors; [3]) | Ki (rat CB2 [2]; [4]) | Ki (rat CB2 [2])
1 | CCCCc1cn(C(C)(C)C)s/c1=N\C(=O)[C@]1(C)CC[C@H](C(=O)NCC)C1(C)C [Example 201, (1R,3S)—N^1-[(5Z)-4-butyl-2-tert-butylisothiazol-5(2H)-ylidene]-N^3-ethyl-1,2,2-trimethylcyclopentane-1,3-dicarboxamide] | 180 nM | 3.5 nM |  |  | 
2 | CCCCc1cn(C(C)(C)C)s/c1=N\C(=O)[C@]1(C)CC[C@H](C(=O)NCc2cccnc2)C1(C)C [Example 235, (1R,3S)—N^1-[(5Z)-4-butyl-2-tert-butylisothiazol-5(2H)-ylidene]-1,2,2-trimethyl-N^3-(pyridin-3-ylmethyl)cyclopentane-1,3-dicarboxamide] |  |  | 320 nM | 258 nM | 
3 | C#CCNC(=O)[C@H]1CC[C@@](C)(C(=O)/N=c2\sn(C(C)(C)C)cc2CCCC)C1(C)C [Example 237, (1R,3S)—N^1-[(5Z)-4-butyl-2-tert-butylisothiazol-5(2H)-ylidene]-1,2,2-trimethyl-N^3-prop-2-ynylcyclopentane-1,3-dicarboxamide] | 23 nM |  |  |  | 18 nM
4 | CCCCc1cn(C(C)(C)C)s/c1=N\C(=O)[C@]1(C)CC[C@H](C(=O)NCC(F)(F)F)C1(C)C [Example 238, (1R,3S)—N^1-[(5Z)-4-butyl-2-tert-butylisothiazol-5(2H)-ylidene]-1,2,2-trimethyl-N^3-(2,2,2-trifluoroethyl)cyclopentane-1,3-dicarboxamide] | 23 nM |  |  |  | 14 nM
5 | C#CCNC(=O)[C@@H]1CC[C@](C)(C(=O)/N=c2\sn(C(C)(C)C)cc2CCCC)C1(C)C [Example 239, (1S,3R)—N^1-[(5Z)-4-butyl-2-tert-butylisothiazol-5(2H)-ylidene]-1,2,2-trimethyl-N^3-prop-2-ynylcyclopentane-1,3-dicarboxamide] | 72 nM |  |  |  | 70 nM
6 | CCCCc1cn(C(C)(C)C)s/c1=N\C(=O)[C@]1(C)CC[C@H](C(=O)N(C)OC)C1(C)C [Example 241, (1R,3S)—N^1-[(5Z)-4-butyl-2-tert-butylisothiazol-5(2H)-ylidene]-N^3-methoxy-N^3,1,2,2-tetramethylcyclopentane-1,3-dicarboxamide] | 20 nM |  |  |  | 24 nM
7 | CCCCc1cn(C(C)(C)C)s/c1=N\C(=O)[C@]1(C)CC[C@H](C2=NCCCO2)C1(C)C [Example 243, (1R,3S)—N-[(5Z)-4-butyl-2-tert-butylisothiazol-5(2H)-ylidene]-3-(5,6-dihydro-4H-1,3-oxazin-2-yl)-1,2,2-trimethylcyclopentanecarboxamide] | 41 nM |  |  |  | 14 nM
8 | CCCCc1cn(C(C)(C)C)s/c1=N\C(=O)[C@]1(C)CC[C@H](NC(=O)N2CCCC2)C1(C)C [Example 244, N-[(1S,3R)-3-({[(5Z)-4-butyl-2-tert-butylisothiazol-5(2H)-ylidene]amino}carbonyl)-2,2,3-trimethylcyclopentyl]pyrrolidine-1-carboxamide] | 42 nM |  |  | 150 nM | 
9 | CCCCc1cn(C(C)(C)C)s/c1=N\C(=O)[C@@H]1CC[C@](C)(NC(N)=O)C1(C)C [Example 246, (1R,3S)-3-[(aminocarbonyl)amino]-N-[(5Z)-4-butyl-2-tert-butylisothiazol-5(2H)-ylidene]-2,2,3-trimethylcyclopentanecarboxamide] |  |  | 150 nM |  | 38 nM
10 | CCCCc1cn(C(C)(C)C)s/c1=N\C(=O)[C@@H]1CC[C@](C)(NC(=O)NC)C1(C)C [Example 247, (1R,3S)—N-[(5Z)-4-butyl-2-tert-butylisothiazol-5(2H)-ylidene]-2,2,3-trimethyl-3-{[(methylamino)carbonyl]amino}cyclopentanecarboxamide] | 41 nM |  |  |  | 40 nM
11 | CCCCc1cn(C(C)(C)C)s/c1=N\C(=O)[C@]1(C)CC[C@H](C(=O)NN2CCCC2)C1(C)C [Example 249, (1R,3S)—N^1-[(5Z)-4-butyl-2-tert-butylisothiazol-5(2H)-ylidene]-1,2,2-trimethyl-N^3-pyrrolidin-1-ylcyclopentane-1,3-dicarboxamide] |  |  | 110 nM | 325 nM | 
12 | CCCCc1cn(C(C)(C)C)s/c1=N\C(=O)[C@]1(C)CC[C@H](NC(=O)N2CCOCC2)C1(C)C [Example 250, N-[(1S,3R)-3-({[(5Z)-4-butyl-2-tert-butylisothiazol-5(2H)-ylidene]amino}carbonyl)-2,2,3-trimethylcyclopentyl]morpholine-4-carboxamide] | 48 nM |  |  |  | 75 nM
13 | CCCCc1cn(C(C)(C)C)s/c1=N\C(=O)[C@]1(C)CC[C@H](NC(=O)c2ccccc2)C1(C)C [Example 251, N-[(1S,3R)-3-({[(5Z)-4-butyl-2-tert-butylisothiazol-5(2H)-ylidene]amino}carbonyl)-2,2,3-trimethylcyclopentyl]benzamide] | 60 nM |  |  |  | 60 nM
14 | CCCCc1cn(C(C)(C)C)s/c1=N\C(=O)[C@]1(C)CC[C@H](NC(=O)NC)C1(C)C [Example 252, (1R,3S)—N-[(5Z)-4-butyl-2-tert-butylisothiazol-5(2H)-ylidene]-1,2,2-trimethyl-3-{[(methylamino)carbonyl]amino}cyclopentanecarboxamide] | 6.2 nM |  |  |  | 18.8 nM
15 | CCCCc1cn(C(C)(C)C)s/c1=N\C(=O)[C@@]1(C)CC[C@@H](NC(N)=O)C1(C)C [Example 253, (1S,3R)-3-[(aminocarbonyl)amino]-N-[(5Z)-4-butyl-2-tert-butylisothiazol-5(2H)-ylidene]-1,2,2-trimethylcyclopentanecarboxamide] | 160 nM |  |  |  | 45 nM
16 | CCCCc1cn(C(C)(C)C)s/c1=N\C(=O)[C@@]1(C)CC[C@@H](NC(=O)NC)C1(C)C [Example 254, (1S,3R)—N-[(5Z)-4-butyl-2-tert-butylisothiazol-5(2H)-ylidene]-1,2,2-trimethyl-3-{[(methylamino)carbonyl]amino}cyclopentanecarboxamide] | 84 nM |  |  | 107 nM | 
17 | CCCCc1cn(C(C)(C)C)s/c1=N\C(=O)[C@@]1(C)CC[C@@H](NC(=O)c2ccccc2)C1(C)C [Example 255, N-[(1R,3S)-3-({[(5Z)-4-butyl-2-tert-butylisothiazol-5(2H)-ylidene]amino}carbonyl)-2,2,3-trimethylcyclopentyl]benzamide] | 25 nM |  |  |  | 69 nM
18 | CCCCc1cn(C(C)(C)C)s/c1=N\C(=O)[C@]1(C)CC[C@H](NC(C)=O)C1(C)C [Example 256, (1R,3S)-3-(acetylamino)-N-[(5Z)-4-butyl-2-tert-butylisothiazol-5(2H)-ylidene]-1,2,2-trimethylcyclopentanecarboxamide] | 19 nM |  |  |  | 28 nM
19 | CCCCc1cn(C(C)(C)C)s/c1=N\C(=O)[C@]1(C)CC[C@H](NC(=O)N2CC(O)C2)C1(C)C [Example 260, N-[(1S,3R)-3-({[(5Z)-4-butyl-2-tert-butylisothiazol-5(2H)-ylidene]amino}carbonyl)-2,2,3-trimethylcyclopentyl]-3-hydroxyazetidine-1-carboxamide] |  |  | 190 nM | 361 nM | 
20 | CCCCc1cn(C(C)(C)C)s/c1=N\C(=O)[C@]1(C)CC[C@H](NC(=O)N2CC(F)(F)C2)C1(C)C [Example 261, N-[(1S,3R)-3-({[(5Z)-4-butyl-2-tert-butylisothiazol-5(2H)-ylidene]amino}carbonyl)-2,2,3-trimethylcyclopentyl]-3,3-difluoroazetidine-1-carboxamide] | 54 nM |  |  |  | 44 nM
21 | CCCCc1cn(C(C)(C)C)s/c1=N\C(=O)c1cc(C(F)(F)F)ccc1OCC(C)(C)O [Example 262, N-[(5Z)-4-butyl-2-tert-butylisothiazol-5(2H)-ylidene]-2-(2-hydroxy-2-methylpropoxy)-5-(trifluoromethyl)benzamide] | 6 nM |  |  |  | 4.4 nM
22 | CCCCc1cn(C(C)(C)C)s/c1=N\C(=O)[C@]1(C)CC[C@H](NC(=O)N2CCC2)C1(C)C [Example 263, N-[(1S,3R)-3-({[(5Z)-4-butyl-2-tert-butylisothiazol-5(2H)-ylidene]amino}carbonyl)-2,2,3-trimethylcyclopentyl]azetidine-1-carboxamide] | 33 nM |  |  |  | 77 nM
23 | CCCCc1cn(C(C)(C)C)s/c1=N\C(=O)[C@]1(C)CC[C@H](NC(=O)N(C)c2ccccc2)C1(C)C [Example 264, (1R,3S)—N-[(5Z)-4-butyl-2-tert-butylisothiazol-5(2H)-ylidene]-1,2,2-trimethyl-3-({[methyl(phenyl)amino]carbonyl}amino)cyclopentanecarboxamide] | 11 nM |  |  |  | 33 nM
24 | CCCCc1cn(C(C)(C)C)s/c1=N\C(=O)C12CC3CC(C1)CC(C(=O)OC)(C3)C2 [Example 265, Methyl 3-({[(5Z)-4-butyl-2-tert-butylisothiazol-5(2H)-ylidene]amino}carbonyl)adamantane-1-carboxylate] | 0.32 nM |  |  |  | 0.07 nM
25 | CCCCc1cn(C(C)(C)C)s/c1=N\C(=O)c1cc(C(F)(F)F)ccc1ONC(C)(C)C [Example 267, 2-[(tert-butylamino)oxy]-N-[(5Z)-4-butyl-2-tert-butylisothiazol-5(2H)-ylidene]-5-(trifluoromethyl)benzamide] | 19 nM |  |  |  | 1 nM

Reference: patent US8501794B2, “Compounds as cannabinoid receptor ligands” (priority 2007, dated 2013)
